Reference: US20260193268A1, “TRICYCLIC PI3Ka INHIBITOR, PREPARATION METHOD THEREFOR, AND PHARMACEUTICAL USE THEREOF” (WIGEN BIOMEDICINE TECHNOLOGY (SHANGHAI) CO., LTD., priority 2022, published 2026)
Like-named read-outs stand apart in the source and are kept apart here.

How the values were obtained:
[1] = test system: MCF-7 cells (with PI3Kα E545K mutation); assay: In vitro inhibition of MCF-7 cell proliferation (CellTiter-Lumi); format: cell-based; conditions: Homo sapiens, MCF7, 144 h
Method in brief: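 MCF-7 (PI3Kα E545K) seeded at 2000 cells/well; serially diluted compounds added next day and exposed for 144 h. Cellular ATP read by CellTiter-Lumi luminescence; IC50 for growth inhibition calculated.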

[2] = test system: HCC1954 cells (with PI3Kα H1047R mutation); assay: In vitro inhibition of HCC1954 cell proliferation (CellTiter-Lumi); format: cell-based; conditions: Homo sapiens, HCC1954, 144 h, HCC1954 cells, 144 h, CellTiter-Lumi
Method: Assay for In Vitro Inhibition of HCC1954 Cell Proliferation by Compounds of the Present Disclosure
The growth of the cells was evaluated, and the IC50 for the inhibition of cell growth by the compounds was calculated.

[3] = class symbols, read-out: Inhibitory activity against MCF-7 cells (IC50), class symbols
[4] = class symbols, read-out: Inhibitory activity against HCC1954 cells (IC50), class symbols
[5] = numeric values, read-out: Inhibitory activity against MCF-7 cells (IC50)
[6] = numeric values, read-out: Inhibitory activity against HCC1954 cells (IC50)

SMILES	IC50 [1, 3] [nM]	IC50 [2, 4] [nM]	IC50 [1, 5] [nM]	IC50 [2, 6] [nM]
N#CC(=CC1CCCN1)C(=O)Nc1cnc(N2CC(N3CCN(c4ccc5c(c4)-c4nc(N6C(=O)OC[C@H]6C(F)F)cn4CCO5)CC3)C2)nc1 (some centres unmarked) [Compound 270]	< 50	< 50		
N#CC(=CC1(N)CC1)C(=O)Nc1cnc(N2CC(N3CCN(c4ccc5c(c4)-c4nc(N6C(=O)OC[C@H]6C(F)F)cn4CCO5)CC3)C2)nc1 [Compound 271]	< 50	< 50		
CNC1(C=C(C#N)C(=O)Nc2cnc(N3CC(N4CCN(c5ccc6c(c5)-c5nc(N7C(=O)OC[C@H]7C(F)F)cn5CCO6)CC4)C3)nc2)CC1 [Compound 273]	< 50	< 50		
CN(C1COC1)C(C)(C)C=C(C#N)C(=O)Nc1ccc(N2CC(N3CCN(c4ccc5c(c4)-c4nc(N6C(=O)OC[C@H]6C(F)F)cn4CCO5)CC3)C2)cc1 [Compound 274]	< 50	< 50		
CC(C)(N)/C=C/C(=O)Nc1ccc(N2CC(N3CCN(c4ccc5c(c4)-c4nc(N6C(=O)OC[C@H]6C(F)F)cn4CCO5)CC3)C2)cc1 [Compound 276]	< 50	< 50		
C=CC(=O)Nc1ccc(N2CC(N3CCN(c4ccc5c(c4)-c4nc(N6C(=O)OC[C@H]6C(F)(F)F)cn4CCO5)CC3)C2)cc1 [Compound 277]	< 50	< 50		
N#CC(=CC1CC1)C(=O)Nc1ccc(N2CC(N3CCN(c4ccc5c(c4)-c4nc(N6C(=O)OC[C@H]6C(F)F)cn4CCO5)CC3)C2)cc1 [Compound 278]			16	42
C=CC(=O)Nc1ccc(N2CC(N3CCN(c4ccc5c(c4)-c4nc(N6C(=O)OC[C@H]6C(F)F)cn4CCO5)CC3)C2)cc1OC(F)(F)F [Compound 279]			0.1	2.8
C=CC(=O)Nc1ccc(N2CC(N3CCN(c4ccc5c(c4)-c4nc(N6C(=O)OC[C@H]6C(F)F)cn4CCO5)CC3)C2)c(OC)c1 [Compound 280]			0.2	3.4
COC1(C=C(C#N)C(=O)Nc2ccc(N3CC(N4CCN(c5ccc6c(c5)-c5nc(N7C(=O)OC[C@H]7C(F)F)cn5CCO6)CC4)C3)cc2)CC1 [Compound 282]	< 50	< 50		
CC1CC1C=C(C#N)C(=O)Nc1ccc(N2CC(N3CCN(c4ccc5c(c4)-c4nc(N6C(=O)OC[C@H]6C(F)F)cn4CCO5)CC3)C2)cc1 (some centres unmarked) [Compound 284]	< 50	< 50		
CN(C)C/C=C/C(=O)Nc1ccc(N2CC(N3CCN(c4ccc5c(c4)-c4nc(N6C(=O)OC[C@H]6C(F)F)cn4CCO5)CC3)C2)nc1 [Compound 285]	< 50	< 50		
CN(C)C/C=C/C(=O)Nc1ccc(N2CC(N3CCN(c4ccc5c(c4)-c4nc(N6C(=O)OC[C@H]6C(F)F)cn4CCO5)CC3)C2)nn1 [Compound 287]	< 50	< 50		
CN(C)C/C=C/C(=O)Nc1cnc(N2CC(N3CCN(c4ccc5c(c4)-c4nc(N6C(=O)OC[C@H]6C(F)F)cn4CCO5)CC3)C2)nc1 [Compound 288]	< 50	< 50		
CN(C1COC1)C(C)(C)C=C(C#N)C(=O)Nc1ccc(N2CC(N3CCN(c4ccc5c(c4)-c4nc(N6C(=O)OC[C@H]6C(F)F)cn4CCO5)CC3)C2)cn1 [Compound 289]	< 50	< 50		
CN(C1COC1)C(C)(C)C=C(C#N)C(=O)Nc1ccc(N2CC(N3CCN(c4ccc5c(c4)-c4nc(N6C(=O)OC[C@H]6C(F)F)cn4CCO5)CC3)C2)nn1 [Compound 295]	< 50	< 50		
CC(C)(C=C(C#N)C(=O)Nc1ccc(N2CC(N3CCN(c4ccc5c(c4)-c4nc(N6C(=O)OC[C@H]6C(F)F)cn4CCO5)CC3)C2)nn1)NC1COC1 [Compound 296]	< 50	< 50		
CNC(C)(C)C=C(C#N)C(=O)Nc1ccc(N2CC(N3CCN(c4ccc5c(c4)-c4nc(N6C(=O)OC[C@H]6C(F)F)cn4CCO5)CC3)C2)nn1 [Compound 299]	< 50	< 50		
COCCNC(C)(C)C=C(C#N)C(=O)Nc1ccc(N2CC(N3CCN(c4ccc5c(c4)-c4nc(N6C(=O)OC[C@H]6C(F)F)cn4CCO5)CC3)C2)nn1 [Compound 303]	< 50	< 50		
CC(C)(C=C(C#N)C(=O)Nc1ccc(N2CC(N3CCN(c4ccc5c(c4)-c4nc(N6C(=O)OC[C@H]6C(F)F)cn4CCO5)CC3)C2)cc1)N1CCN(C2COC2)CC1 [Compound 304]	< 50	< 50		
COCCN1CCN(C(C)(C)C=C(C#N)C(=O)Nc2ccc(N3CC(N4CCN(c5ccc6c(c5)-c5nc(N7C(=O)OC[C@H]7C(F)F)cn5CCO6)CC4)C3)cc2)CC1 [Compound 305]	< 50	< 50		
CC(C)(C=C(C#N)C(=O)Nc1ccc(N2CC(N3CCN(c4ccc5c(c4)-c4nc(N6C(=O)OC[C@H]6C(F)F)cn4CCO5)CC3)C2)cc1)N1CCNCC1 [Compound 306]	< 50	< 50		

Second part, the compound after the results:

IC50 [1, 3] [nM]	IC50 [2, 4] [nM]	IC50 [1, 5] [nM]	IC50 [2, 6] [nM]	SMILES
< 50	< 50			CC=C(C#N)C(=O)Nc1cnc(N2CC(N3CCN(c4ccc5c(c4)-c4nc(N6C(=O)OC[C@H]6C(F)F)cn4CCO5)CC3)C2)nc1 [Compound 272]
< 50	< 50			CN(C)C/C=C/C(=O)Nc1ncc(N2CC(N3CCN(c4ccc5c(c4)-c4nc(N6C(=O)OC[C@H]6C(F)F)cn4CCO5)CC3)C2)cn1 [Compound 286]
< 50	< 50			CC(C)(C=C(C#N)C(=O)Nc1ccc(N2CC(N3CCN(c4ccc5c(c4)-c4nc(N6C(=O)OC[C@H]6C(F)F)cn4CCO5)CC3)C2)cn1)NC1COC1 [Compound 290]
< 50	< 50			CC(C)(N)C=C(C#N)C(=O)Nc1ccc(N2CC(N3CCN(c4ccc5c(c4)-c4nc(N6C(=O)OC[C@H]6C(F)F)cn4CCO5)CC3)C2)cn1 [Compound 291]
< 50	< 50			CN(C1COC1)C(C)(C)C=C(C#N)C(=O)Nc1ncc(N2CC(N3CCN(c4ccc5c(c4)-c4nc(N6C(=O)OC[C@H]6C(F)F)cn4CCO5)CC3)C2)cn1 [Compound 292]
< 50	< 50			CC(C)(C=C(C#N)C(=O)Nc1ncc(N2CC(N3CCN(c4ccc5c(c4)-c4nc(N6C(=O)OC[C@H]6C(F)F)cn4CCO5)CC3)C2)cn1)NC1COC1 [Compound 293]
< 50	< 50			CC(C)(N)C=C(C#N)C(=O)Nc1ncc(N2CC(N3CCN(c4ccc5c(c4)-c4nc(N6C(=O)OC[C@H]6C(F)F)cn4CCO5)CC3)C2)cn1 [Compound 294]
< 50	< 50			CC(C)(N)C=C(C#N)C(=O)Nc1ccc(N2CC(N3CCN(c4ccc5c(c4)-c4nc(N6C(=O)OC[C@H]6C(F)F)cn4CCO5)CC3)C2)nn1 [Compound 297]
< 50	< 50			CNC(C)(C)C=C(C#N)C(=O)Nc1ccc(N2CC(N3CCN(c4ccc5c(c4)-c4nc(N6C(=O)OC[C@H]6C(F)F)cn4CCO5)CC3)C2)cn1 [Compound 298]
< 50	< 50			CNC(C)(C)C=C(C#N)C(=O)Nc1ncc(N2CC(N3CCN(c4ccc5c(c4)-c4nc(N6C(=O)OC[C@H]6C(F)F)cn4CCO5)CC3)C2)cn1 [Compound 300]
< 50	< 50			COCCNC(C)(C)C=C(C#N)C(=O)Nc1ccc(N2CC(N3CCN(c4ccc5c(c4)-c4nc(N6C(=O)OC[C@H]6C(F)F)cn4CCO5)CC3)C2)cn1 [Compound 301]
< 50	< 50			COCCNC(C)(C)C=C(C#N)C(=O)Nc1ncc(N2CC(N3CCN(c4ccc5c(c4)-c4nc(N6C(=O)OC[C@H]6C(F)F)cn4CCO5)CC3)C2)cn1 [Compound 302]
